From article PMC5578999, “Novel quinolone chalcones targeting colchicine-binding pocket kill multidrug-resistant cancer cells by inhibiting tubulin activity and MRP1 function” (Scientific Reports, 2017)

Tests used:
Experiment in all cases: NCI-60 SRB screen
Type in all cases: cell-based
NCI-H322M = system: NCI-H322M
Description: (§1) Supplementary Figure l egend
(§2) 10μ M of CTR-20 was used to examine the drug’s efficac y against the NC I-60 cancer cell li nes including: six leukemia cell lines, nine non- small cell lung cancer cell lines, seven color ect al cancer cell lines, six CNS cancer cell lines, nine melanoma cell lines, seven ovari an can cer cell lines, seven ren al can cer cell lines, two prostate cancer cell lines and six breast cancer cell lines. The scr eenin g was car r ied out b y the US National Cancer Institute (NC I) us i n g a sulforhodamine B (SRB) colorimetric assay. […]
(§3) out by the NC I using five different doses of CTR -20.

RPMI-8226 = system: RPMI-8226
Description: as §1, §2, §3

KM12 = system: KM12
Description: as §1, §2, §3

UO-31 = system: UO-31
Description: as §1, §2, §3

M14 = system: M14
Description: as §1, §2, §3

TK-10 = system: TK-10
Description: as §1, §2, §3

[1] = Homo sapiens, read-out: LC50 (the source's name)

With `COc1ccc2[nH]c(=O)c(/C=C/C(=O)c3ccccc3OC)cc2c1` [CTR-20, (E)-6-Methoxy-3-(3-(2-methoxyphenyl)-3-oxoprop-1-enyl) quinolin-2(1H)-one] as the compound, how does the Log10GI50 (NCI-H322M) read?
The Log10GI50 was -5.62 Molar.

And the Log10LC50 (NCI-H322M)?
The Log10LC50 was -4.48 Molar.

What about the Log10TGI (NCI-H322M) of the same compound?
The Log10TGI was -4.98 Molar.

What about the TGI (NCI-H322M) of the same compound?
The TGI was 1.04E-5 Molar.

What about the “Growth Percent” value (NCI-H322M; 1.00E-5 Molar) of the same compound?
The value was 18.31%.

What about the GI50 (NCI-H322M; Homo sapiens) of the same compound?
The GI50 was 2400 nM.

And the CC50 (NCI-H322M; [1])?
Its CC50 is 33500 nM.

And the “Percent Growth” value (NCI-H322M; Log10 Concentration -4.0)?
Its value is -97%.

And the “Percent Growth” value (NCI-H322M; Log10 Concentration -5.0)?
Its value is 2%.

What about the “Percent Growth” value (NCI-H322M; Log10 Concentration -6.0) of the same compound?
The value was 80%.

What about the “Percent Growth” value (NCI-H322M; Log10 Concentration -7.0) of the same compound?
Its value is 93%.

What about the “Percent Growth” value (NCI-H322M; Log10 Concentration -8.0) of the same compound?
Its value is 94%.

What about the Log10GI50 (RPMI-8226) of the same compound?
Its Log10GI50 is -6.41 Molar.

What about the Log10LC50 (RPMI-8226) of the same compound?
The Log10LC50 was > -4.00 Molar.

And the Log10TGI (RPMI-8226)?
Its Log10TGI is -5.66 Molar.

And the TGI (RPMI-8226)?
The TGI was 2.21E-6 Molar.

What about the “Growth Percent” value (RPMI-8226; 1.00E-5 Molar) of the same compound?
The value was 5.61%.

What about the GI50 (RPMI-8226; Homo sapiens) of the same compound?
Its GI50 is 385 nM.

And the CC50 (RPMI-8226; [1])?
Its CC50 is > 100000 nM.

What about the “Percent Growth” value (RPMI-8226; Log10 Concentration -4.0) of the same compound?
The value was -37%.

What about the “Percent Growth” value (RPMI-8226; Log10 Concentration -5.0) of the same compound?
Its value is -20%.

And the “Percent Growth” value (RPMI-8226; Log10 Concentration -6.0)?
The value was 10%.

And the “Percent Growth” value (RPMI-8226; Log10 Concentration -7.0)?
The value was 106%.

What about the “Percent Growth” value (RPMI-8226; Log10 Concentration -8.0) of the same compound?
Its value is 113%.

And the Log10GI50 (KM12)?
The Log10GI50 was -6.49 Molar.

What about the Log10LC50 (KM12) of the same compound?
Its Log10LC50 is -5.23 Molar.

What about the Log10TGI (KM12) of the same compound?
Its Log10TGI is -5.80 Molar.

What about the TGI (KM12) of the same compound?
The TGI was 1.58E-6 Molar.

What about the “Growth Percent” value (KM12; 1.00E-5 Molar) of the same compound?
Its value is 4.37%.

What about the GI50 (KM12; Homo sapiens) of the same compound?
The GI50 was 321 nM.

What about the CC50 (KM12; [1]) of the same compound?
The CC50 was 5890 nM.

What about the “Percent Growth” value (KM12; Log10 Concentration -4.0) of the same compound?
Its value is -86%.

And the “Percent Growth” value (KM12; Log10 Concentration -5.0)?
The value was -70%.

What about the “Percent Growth” value (KM12; Log10 Concentration -6.0) of the same compound?
The value was 17%.

What about the “Percent Growth” value (KM12; Log10 Concentration -7.0) of the same compound?
The value was 84%.

What about the “Percent Growth” value (KM12; Log10 Concentration -8.0) of the same compound?
Its value is 99%.

What about the Log10GI50 (UO-31) of the same compound?
The Log10GI50 was -6.02 Molar.

What about the Log10LC50 (UO-31) of the same compound?
Its Log10LC50 is -5.28 Molar.

And the Log10TGI (UO-31)?
The Log10TGI was -5.64 Molar.

What about the TGI (UO-31) of the same compound?
Its TGI is 2.28E-6 Molar.

What about the “Growth Percent” value (UO-31; 1.00E-5 Molar) of the same compound?
The value was 23.62%.

And the GI50 (UO-31; Homo sapiens)?
Its GI50 is 958 nM.

What about the CC50 (UO-31; [1]) of the same compound?
Its CC50 is 5270 nM.

And the “Percent Growth” value (UO-31; Log10 Concentration -4.0)?
Its value is -100%.

And the “Percent Growth” value (UO-31; Log10 Concentration -5.0)?
Its value is -88%.

And the “Percent Growth” value (UO-31; Log10 Concentration -6.0)?
Its value is 49%.

And the “Percent Growth” value (UO-31; Log10 Concentration -7.0)?
Its value is 81%.

What about the “Percent Growth” value (UO-31; Log10 Concentration -8.0) of the same compound?
The value was 87%.

What about the Log10GI50 (M14) of the same compound?
The Log10GI50 was -6.56 Molar.

What about the Log10LC50 (M14) of the same compound?
Its Log10LC50 is -4.62 Molar.

What about the Log10TGI (M14) of the same compound?
The Log10TGI was -5.85 Molar.

And the TGI (M14)?
Its TGI is 1.41E-6 Molar.

What about the “Growth Percent” value (M14; 1.00E-5 Molar) of the same compound?
The value was 13.82%.

And the GI50 (M14; Homo sapiens)?
Its GI50 is 278 nM.

What about the CC50 (M14; [1]) of the same compound?
Its CC50 is 24000 nM.

What about the “Percent Growth” value (M14; Log10 Concentration -4.0) of the same compound?
The value was -93%.

And the “Percent Growth” value (M14; Log10 Concentration -5.0)?
The value was -23%.

And the “Percent Growth” value (M14; Log10 Concentration -6.0)?
Its value is 4%.

And the “Percent Growth” value (M14; Log10 Concentration -7.0)?
The value was 87%.

What about the “Percent Growth” value (M14; Log10 Concentration -8.0) of the same compound?
Its value is 92%.

And the Log10GI50 (TK-10)?
Its Log10GI50 is -5.64 Molar.

And the Log10LC50 (TK-10)?
The Log10LC50 was -4.44 Molar.

What about the Log10TGI (TK-10) of the same compound?
Its Log10TGI is -4.88 Molar.

What about the TGI (TK-10) of the same compound?
The TGI was 1.31E-5 Molar.

And the “Growth Percent” value (TK-10; 1.00E-5 Molar)?
Its value is 42.01%.

And the GI50 (TK-10; Homo sapiens)?
The GI50 was 2310 nM.

And the CC50 (TK-10; [1])?
Its CC50 is 36400 nM.

And the “Percent Growth” value (TK-10; Log10 Concentration -4.0)?
The value was -99%.

And the “Percent Growth” value (TK-10; Log10 Concentration -5.0)?
The value was 13%.

And the “Percent Growth” value (TK-10; Log10 Concentration -6.0)?
Its value is 71%.

What about the “Percent Growth” value (TK-10; Log10 Concentration -7.0) of the same compound?
The value was 93%.

And the “Percent Growth” value (TK-10; Log10 Concentration -8.0)?
Its value is 91%.
